The target of this assay is CK2α (Homo sapiens, UniProt P68400). As to the kind of experiment: biochemical. The settings on record: read-out: % inhibition of phosphorylation activity of CK2α.

SMILES strings stand for the structures.

In general, inhibition refers to the drop in the measured response relative to a control, in per cent.

Sequence of CK2α (P68400 2-329): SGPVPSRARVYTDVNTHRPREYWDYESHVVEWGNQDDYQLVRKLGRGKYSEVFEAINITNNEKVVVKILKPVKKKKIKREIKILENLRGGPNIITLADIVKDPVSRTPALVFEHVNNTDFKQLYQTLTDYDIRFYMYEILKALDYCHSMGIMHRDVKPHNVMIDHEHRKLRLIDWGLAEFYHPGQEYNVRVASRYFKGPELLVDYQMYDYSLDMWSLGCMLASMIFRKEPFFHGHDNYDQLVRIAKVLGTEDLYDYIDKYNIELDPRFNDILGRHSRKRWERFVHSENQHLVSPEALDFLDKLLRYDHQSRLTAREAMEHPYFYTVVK

For `NCc1cc(Cl)cc(-c2cccc3[nH]ccc23)c1` [Compound 7, (3-chloro-5-(1H-indol-4-yl)phenyl)methanamine], the inhibition at 100 µM is 18%.

The values above are taken from paper PMC6562204 (Bioorganic & Medicinal Chemistry, 2018).
